{"source": "paper PMC8262977", "about": "“A Dual-Specificity Inhibitor Targets Polyphosphate Kinase 1 and 2 Enzymes To Attenuate Virulence of Pseudomonas aeruginosa” (mBio, 2021)", "key": {"P. aeruginosa PPK1": {"target": "T1, P. aeruginosa PPK1 (Pseudomonas aeruginosa, UniProt P0DP44)", "T1 construct": "His tag (cleaved yes); made in house", "T1 sequence (P0DP44 whole entry)": "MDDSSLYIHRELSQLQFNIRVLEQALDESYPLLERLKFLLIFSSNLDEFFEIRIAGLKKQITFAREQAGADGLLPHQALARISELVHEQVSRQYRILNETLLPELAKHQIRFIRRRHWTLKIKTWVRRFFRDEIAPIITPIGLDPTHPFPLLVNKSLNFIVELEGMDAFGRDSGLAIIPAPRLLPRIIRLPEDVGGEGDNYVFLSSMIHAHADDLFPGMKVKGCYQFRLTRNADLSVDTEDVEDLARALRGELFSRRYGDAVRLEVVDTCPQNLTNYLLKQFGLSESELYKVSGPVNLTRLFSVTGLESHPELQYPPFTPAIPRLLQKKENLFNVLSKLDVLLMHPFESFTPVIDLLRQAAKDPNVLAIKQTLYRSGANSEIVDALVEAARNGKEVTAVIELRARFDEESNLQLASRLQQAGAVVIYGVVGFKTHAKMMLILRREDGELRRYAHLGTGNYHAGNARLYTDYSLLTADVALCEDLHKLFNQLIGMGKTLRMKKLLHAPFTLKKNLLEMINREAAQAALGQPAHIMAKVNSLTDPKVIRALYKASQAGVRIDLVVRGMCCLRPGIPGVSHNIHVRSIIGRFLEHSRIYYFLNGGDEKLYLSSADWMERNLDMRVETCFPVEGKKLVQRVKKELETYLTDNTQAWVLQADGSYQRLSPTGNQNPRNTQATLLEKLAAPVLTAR", "assay": "PPK1 polyP synthesis from ATP, toluidine blue detection", "format": "biochemical", "description": "Compounds were synthesized as outlined in Text S1. Compounds were dissolved in DMSO to make 10 mM stocks and added to a 200 μM final concentration for initial screening. The screen for PPK1 inhibitors was conducted by measuring polyP synthesis activity as described previously ([12]), with the exception of the polyP detection method (see Text S1). […] One-hundred-microliter reaction mixtures were incubated at 37°C for 30 min, after which time 50-μl aliquots were withdrawn and added to 1,000 μl of 6-mg/liter toluidine blue dissolved in 40 mM acetic acid to quench the reaction and quantify polyP ([27]). The A630/530 nm ratio was then recorded, and the values obtained were corrected by subtracting the corresponding blanks (all ingredients except enzyme). The amount of polyP synthesized was calculated using a standard curve (Fig. S1A). Any compounds showing 50% or greater reduction in activity relative to the DMSO control were subjected to further IC50 analysis.\nAll IC50 and kinetic assay mixtures contained equimolar amounts (275 nM) of PPK to ensure valid comparison between different enzymes. PolyP synthesis activity (for PPK1 and PPK2B) was assayed using the reaction buffer and conditions described above. ATP concentration was varied as indicated for kinetic experiments. Curves were fit using GraphPad Prism V9."}, "P. aeruginosa PA14 [1]": {"tested_on": "P. aeruginosa PA14", "assay": "Bacterial polyP accumulation assay after phosphate starvation", "format": "cell-based, Pseudomonas aeruginosa", "description": "P. aeruginosa polyP levels following nutrient deprivation in morpholinepropanesulfonic acid (MOPS) minimal medium were assessed as described previously ([8]), with slight variations. Briefly, overnight cultures were grown in 5 ml LB in the presence of inhibitor or DMSO as indicated. Cultures were centrifuged for 10 min at 3,900 rpm to pellet cells, which were then resuspended in MOPS minimal medium containing 100 μM phosphate and the indicated quantity of inhibitor or DMSO. Cultures were incubated at 37°C for 2 h to allow polyP accumulation and then subsequently pelleted, resuspended in guanidinium thiocyanate (GITC) lysis buffer, and boiled at 95°C for 5 min. PolyP was purified via silica spin column as described previously ([8]), with the exception of using 50 nM PPK2A instead of E. coli PPK to convert polyP to ATP. An Invitrogen ATP determination kit (ThermoFisher) was used per the manufacturer’s instructions for ATP quantification. Luminescence was recorded on a SpectraMax iD3 microplate reader (Molecular Devices)."}, "P. aeruginosa PA14 [2]": {"tested_on": "P. aeruginosa PA14", "assay": "Biofilm assay, crystal violet staining", "format": "cell-based, Pseudomonas aeruginosa", "description": "P. aeruginosa biofilms were quantified as described previously ([54]). Briefly, M63 medium supplemented with 1 mM MgSO4 and 0.4% arginine as the sole carbon source was colony inoculated with PA14. Biofilms were allowed to form in 96-well tissue culture plates (U-bottom; Sarstedt) at 37°C for 16 h. Wells were washed twice with sterile water. Biofilm rings were stained with 0.1% crystal violet, washed twice with water, and then solubilized in 30% acetic acid to record absorbance at 570 nm."}, "P. aeruginosa": {"tested_on": "P. aeruginosa", "assay": "C. elegans liquid killing (LK) infection assay", "format": "in vivo, Caenorhabditis elegans", "conditions": "100 μM gallein", "description": "Wild-type N2 C. elegans and the glp-4 conditionally sterile mutant strain were obtained from the Caenorhabditis Genetics Center. Liquid killing assays were conducted using glp-4 mutant worms as described previously ([35]), with the exception of survival being scored manually under a Zeiss light microscope instead of via Sytox Orange staining. Nematodes were scored as dead when they no longer moved when tapped. Solid killing was conducted using glp-4 as described previously ([34]), with the indicated concentration of inhibitor impregnated into the SK agar. Bacterial CFU accumulation in WT N2 worms was quantified as described previously ([56]). Briefly, age-synchronized embryos were spotted onto bacterium-seeded nematode growth medium (NGM) agar plates impregnated with inhibitor or DMSO. Embryos were incubated at 25°C for 3 days, after which point adult worms were harvested, washed, lysed, and enumerated for CFU."}, "[3]": {"conditions": "WT: DMSO control vs 100 µM gallein"}, "[4]": {"conditions": "Δppk1: DMSO control vs 100 µM gallein"}}, "data": [{"molecule": "O=C1OC2(c3ccccc31)c1ccc(O)c(O)c1Oc1c2ccc(O)c1O", "note": "[RT4 (gallein), gallein]", "values": [{"measurement": "PPK1 activity in the absence of ATP regeneration", "setting": "P. aeruginosa PPK1; no creatine kinase/creatine phosphate, low-micromolar gallein", "result": "reduced both PPK1 activity rate and equilibrium polyP levels"}, {"measurement": "IC50", "setting": "P. aeruginosa PPK1; polyP synthesis from ATP, 275 nM enzyme", "result": "17 ± 1", "unit": "µM"}, {"measurement": "polyP levels", "setting": "P. aeruginosa PA14 [1]; WT, phosphate starvation medium, nonbactericidal amounts", "result": "reduced wild-type (WT) polyP levels in a dose-dependent manner"}, {"measurement": "Bacterial polyP accumulation, Mean Diff.", "setting": "P. aeruginosa PA14 [1]; [3]", "result": 68.65}, {"measurement": "Bacterial polyP accumulation, Mean Diff.", "setting": "P. aeruginosa PA14 [1]; Δppk1, Δppk2A, Δppk2B, Δppk2C: DMSO control vs 100 µM gallein", "result": 2.148}, {"measurement": "Bacterial polyP accumulation, Mean Diff.", "setting": "P. aeruginosa PA14 [1]; [4]", "result": 29.11}, {"measurement": "polyP levels", "setting": "P. aeruginosa PA14 [1]; Δppk1 strain", "result": "significantly reduced polyP levels"}, {"measurement": "polyP levels", "setting": "P. aeruginosa PA14 [1]; Δppk1 Δppk2A Δppk2B Δppk2C (ΔpolyP) strain", "result": "had no effect"}, {"measurement": "polyP levels", "setting": "P. aeruginosa PA14 [1]; Δppk2A Δppk2B Δppk2C strain", "result": "reduced polyP in this strain to a similar extent as that in the WT"}, {"measurement": "Bacterial polyP accumulation, Mean Diff.", "setting": "P. aeruginosa PA14 [1]; Δppk2A, Δppk2B, Δppk2C: DMSO control vs 100 µM gallein", "result": 74.9}, {"measurement": "Biofilm formation, Mean Diff.", "setting": "P. aeruginosa PA14 [2]; [3]", "result": 0.1666}, {"measurement": "biofilm formation", "setting": "P. aeruginosa PA14 [2]; WT, reduction dose dependent", "result": "reduced biofilm formation"}, {"measurement": "biofilm formation", "setting": "P. aeruginosa PA14 [2]; ΔpolyP strain", "result": "no significant effect"}, {"measurement": "Biofilm formation, Mean Diff.", "setting": "P. aeruginosa PA14 [2]; Δppk1, 2a, 2b, 2c: DMSO control vs 100 µM gallein", "result": 0.005375}, {"measurement": "Biofilm formation, Mean Diff.", "setting": "P. aeruginosa PA14 [2]; [4]", "result": 0.08825}, {"measurement": "biofilm formation", "setting": "P. aeruginosa PA14 [2]; Δppk1 strain", "result": "further decreased biofilm formation"}, {"measurement": "Biofilm formation, Mean Diff.", "setting": "P. aeruginosa PA14 [2]; Δppk2a, 2b, 2c: DMSO control vs 100 µM gallein", "result": 0.08488}, {"measurement": "biofilm formation", "setting": "P. aeruginosa PA14 [2]; Δppk2 strain", "result": "further decreased biofilm formation"}, {"measurement": "C. elegans survival", "setting": "P. aeruginosa", "result": "significantly improved survival rates"}]}]}
